Reference: the supplement of paper PMC10331698
± gives the standard deviation of the averaged measurements.

Columns and labels:
Assay in all cases: level (log10 ratio to DMSO vehicle control); higher = higher biomarker level / cell amount than vehicle control
[1] = compound: CN(C(=O)C(F)(F)C(F)(F)C(F)(F)F)[Si](C)(C)C [N-Methyl-N-trimethylsilylheptafluorobutyramide] (in DMSO)
Description: (§1)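 BioMAP Diversity Plus panel of 12 human primary cell co-culture systems (3C, 4H, LPS, SAg, BT, BF4T, BE3C, CASM3C, HDF3CGF, KF3CT, MyoF, Mphg). Compounds were added 1 h before stimulation and left for 24 h (MyoF 48 h; BT 72 h for soluble read-outs or 6 d for IgG). Biomarkers were read by ELISA, cytotoxicity by SRB, PBMC viability and proliferation by Alamar Blue. Each well value was divided by the mean of 8 DMSO control wells on the same plate and log10 transformed; duplicate blinded samples were tested at 4 concentrations.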

[2] = compound: OCCC(F)(F)C(F)(F)C(F)(F)C(F)(F)F [4:2 Fluorotelomer alcohol] (in DMSO)
Description: as §1

[3] = compound: O=C(O)CCC(F)(C(F)(F)F)C(F)(F)F [4,4-bis(Trifluoromethyl)-4-fluoropropanoic acid] (in DMSO)
Description: as §1

[4] = compound: CO[Si](C)(CCC(F)(F)C(F)(F)C(F)(F)C(F)(F)C(F)(F)C(F)(F)F)OC [Dimethoxymethyl((perfluorohexyl)ethyl)silane] (in DMSO)
Description: as §1

[5] = compound: CCOC(=O)CC(=O)C(F)(F)C(F)(F)F [Ethyl pentafluoropropionyl acetate] (in DMSO)
Description: as §1

[6] = compound: O=C(O)C=C(C(F)(F)F)C(F)(F)F [3,3-Bis(trifluoromethyl)-2-propenoic acid] (in DMSO)
Description: as §1

Perfluoroundecanoic acid = compound: O=C(O)C(F)(F)C(F)(F)C(F)(F)C(F)(F)C(F)(F)C(F)(F)C(F)(F)C(F)(F)C(F)(F)C(F)(F)F [Perfluoroundecanoic acid] (in DMSO); settings: 6700 nM
Description: as §1

lMphg:SRB
level (log10) ([1]; 6700 nM): -0.0015 ± 0.005
level (log10) ([1]; 20000 nM): 0 ± 0.0099
level (log10) ([1]; 60000 nM): 0.003 ± 0.0014
level (log10) ([2]; 6700 nM): 0.001 ± 0.0099
level (log10) ([2]; 20000 nM): 0.0015 ± 0.0035
level (log10) ([2]; 60000 nM): 0.004 ± 0.0071
level (log10) ([3]; 6700 nM): -0.0025 ± 0.0064
level (log10) ([3]; 20000 nM): -0.0005 ± 0.0064
level (log10) ([3]; 60000 nM): 0.0065 ± 0.0021
level (log10) ([4]; 6700 nM): -0.0025 ± 0.0092
level (log10) ([4]; 20000 nM): -0.0045 ± 0.00071
level (log10) ([5]; 6700 nM): 0.005 ± 0.0071
level (log10) ([5]; 20000 nM): -0.0005 ± 0.0078
level (log10) ([5]; 60000 nM): 0.0055 ± 0.0035
level (log10) ([6]; 6700 nM): -0.0145 ± 0.013
level (log10) ([6]; 20000 nM): -0.0205 ± 0.0021
level (log10) ([6]; 60000 nM): -0.0205 ± 0.028
level (log10) (Perfluoroundecanoic acid): -0.001 ± 0.011

lMphg:SRB-Mphg
level (log10) ([1]; 6700 nM): 0.0035 ± 0.00071
level (log10) ([1]; 20000 nM): 0.002 ± 0.031
level (log10) ([1]; 60000 nM): 0.015 ± 0.02
level (log10) ([2]; 6700 nM): -0.007 ± 0.03
level (log10) ([2]; 20000 nM): -0.004 ± 0.018
level (log10) ([2]; 60000 nM): 0.016 ± 0.017
level (log10) ([3]; 6700 nM): 0.0125 ± 0.0021
level (log10) ([3]; 20000 nM): -0.0025 ± 0.012
level (log10) ([3]; 60000 nM): 0.002 ± 0.016
level (log10) ([4]; 6700 nM): 0.0195 ± 0.0021
level (log10) ([4]; 20000 nM): 0.0295 ± 0.0021
level (log10) ([5]; 6700 nM): -0.0015 ± 0.018
level (log10) ([5]; 20000 nM): -0.0055 ± 0.005
level (log10) ([5]; 60000 nM): -0.012 ± 0.02
level (log10) ([6]; 6700 nM): -0.032
level (log10) ([6]; 20000 nM): -0.017 ± 0.014
level (log10) ([6]; 60000 nM): 0.0035 ± 0.012
level (log10) (Perfluoroundecanoic acid): -0.019 ± 0.016

lMphg:sIL-10
level (log10) ([1]; 6700 nM): -0.006 ± 0.061
level (log10) ([1]; 20000 nM): -0.135 ± 0.1
level (log10) ([1]; 60000 nM): -0.0905 ± 0.043
level (log10) ([2]; 6700 nM): -0.0195 ± 0.0078
level (log10) ([2]; 20000 nM): -0.0385 ± 0.022
level (log10) ([2]; 60000 nM): -0.025 ± 0.0099
level (log10) ([3]; 6700 nM): -0.0325 ± 0.005
level (log10) ([3]; 20000 nM): -0.062 ± 0.075
level (log10) ([3]; 60000 nM): -0.003 ± 0.12
level (log10) ([4]; 6700 nM): -0.0465 ± 0.013
level (log10) ([4]; 20000 nM): -0.085 ± 0.014
level (log10) ([5]; 6700 nM): -0.0405 ± 0.012
level (log10) ([5]; 20000 nM): -0.0435 ± 0.035
level (log10) ([5]; 60000 nM): -0.0305 ± 0.022
level (log10) ([6]; 6700 nM): -0.2 ± 0.0071
level (log10) ([6]; 20000 nM): -0.325 ± 0.029
level (log10) ([6]; 60000 nM): -0.547 ± 0.028
level (log10) (Perfluoroundecanoic acid): 0.0325 ± 0.016
